Ends that are not written are not given here.
Key:
[1] = system: MDA-MB-231 tumor tissue after rapamycin autophagy induction; assay: Microscopy of tumor frozen sections for peptide target signal; assay type: in vivo, nude mouse; details: flamma 675-labeled peptide; five hours after the peptide injection; frozen sections (FIG. 10)
Protocol: After five hours of the peptide injection, the image were acquired. Then the mice were sacrificed and the tumors were separated and frozen sections of tissues were prepared. Six μm-thickness tumor frozen sections were stained with DAPI for nuclear staining and immunostained with LC3 antibody for autophagy induction. The signal of flamma 675 (FPR675) dye, LC3 and DAPI were observed as red, green and blue under a microscope, respectively.

[2] = system: HeLa cell, Chang cell and BEAS-2B cell; assay: Detection of autophagy cells in other cell types, fluorescence microscopy; assay type: cell-based; details: rhodamine B labeled, BEAS-2B cells (FIG. 8)
Protocol: (§1) pEGFP-LC3-transfected MDA-MB-231 cells were cultured on an eight-chamber slide and were treated with EBSS (Earl's balanced salt solution) for 2 hours to induce autophagy. Cells were then washed with PBS and treated with 10 μmol/L of each solution of Rhodamine B-labeled AtgPep-1 to AtgPep-4 (provided in PBS diluted) and incubated at 4° C. for 1 hour. Then 1% BSA was treated at 4° C. for 1 hour. The cells were fixed with 4% paraformaldehyde for 5 minutes. The cells were then stained with […] (DAPI) and mounted on a fluorescence microscope (Zeiss, Oberkochen, Germany).
In order to verify that the peptide of the present invention acts also on other tissues or cells other than the MDA-MB-231 cell line, autophagy was induced in several kinds of cells (derived from different tissues) and their detection ability was confirmed using AtgPep-1 (CKHHLGAIC; SEQ ID NO: 1) and AtgPep-2 (CQQTKNYYC: SEQ ID NO: 2) which represent particularly high signals among AtgPep-1 to AtgPep-4. The experimental method is the same as described above.

[3] = system: autophagy cells (rapamycin-treated HeLa or MDA-MB-231 cells); assay: Immunofluorescent staining of phage clones on rapamycin-treated cells; assay type: cell-based; details: phage clones displaying the peptide; rapamycin 4 hr; anti-M13 immunofluorescence (FIG. 4)
Protocol: A phage clone with high specificity for binding to autophagy cells was selected through phage binding ELISA for autophagy cells. More specifically, For binding of each phage clone in vitro, cells were seeded at 2×10^4 cells/well in a 96-well culture plate and cultured in 80˜90% confluence. And then cells were treated with rapamycin in serum-free medium for 4 hours, then washed with PBS and blocked with 1% BSA for 30 minutes at room temperature. The treated cells were then incubated with each phage clone (1×10^9 pfu/well). The pool of a phage library was used as a control. After 1 hour incubation at 4° C. with a phage clone, the cells were washed again with PBS and fixed with […] (in DMEM). Next, HRP-conjugated anti-M13 phage monoclonal antibody (1:3000 dilution, NEB) was added to M13 phage and incubated at room temperature for one hour. The cells were washed three times with PBS, and the TMB substrate (100/well) was treated for 2-10 min for color development and the reaction was terminated by treatment with 2M H2SO4. The final color product was measured at 450 nm wavelength in microtitration plate reader (Sunrise, Tecan Austria) using a windows based program XFluor4.
Further, after the phage clones selected for the rapamycin-treated cells were cultured as described above, immunofluorescent staining was performed using a mouse monoclonal antibody to M13 phage (mouse anti-M13 monoclonal antibody, diluted 1:3000) and Alexa 549-labeled antibody (Alexa 549-conjugated anti-mouse IgG antibody, abcam) against the mouse antibody as a secondary antibody in a conventional manner to confirm the attachment specificity and effect of the phage clones, and used for screening. […] The four peptide sequences of the clones is as follows; CKHHLGAIC (AtgPep-1, SEQ ID NO: 1), CQQTKNYYC (AtgPep-2, SEQ ID NO: 2), CNTGSPYEC: SEQ ID NO: 3 (AtgPep-3, SEQ ID NO: 3), CPPNTDRSC (AtgPep-4, SEQ ID NO: 4). […] It was confirmed that the phage clones displaying AtgPep-1 to AtgPep-4 specifically bind to autophagy cells respectively. In particular, it was confirmed that the phage clones specifically bind to the autophagy cells even in the initial (4 hr) autophagy state.

[4] = system: pEGFP-LC3-transfected MDA-MB-231 cells treated with EBSS; assay: Detection of autophagy cells in the early stages of autophagy induction, fluorescence microscopy; assay type: cell-based; details: for fluorescence signal on early autophagy cells: Rhodamine B-labeled peptide 10 μmol/L, 4° C. 1 hour, EBSS 2 hours (FIG. 6); for site of binding on autophagy-induced cells: rhodamine-labeled peptide, single MDA-MB-231 cell (FIGS. 7A and 7B)
Protocol: as §1

[5] = system: A549, HT1376, MDA-MB-231, HeLa and BEAS-2B cell lines; assay: Western blotting of LC3 I and LC3 II for autophagy level; assay type: cell-based; details: chloroquine treated together with rapamycin, 4 hours; all the cells (FIG. 1)
Protocol: After 4 hours, the cells were washed two times with 1×PBS, followed by a western blotting was carried out to investigate the protein levels of LC3 I and LC3 II (hereinafter referred to as, LC3 I/II). In order to perform the western blotting, the cells were first lysed with RIPA buffer with 1/ml protease inhibitor cocktail in the drug-treated cells. The whole cell extracts were fractionated by SDS-PAGE, and transferred to a nitrocellulose membrane using a dry blot (Bio-Rad). The membranes were incubated with TBST (10 mM Tris, pH 8.0, 150 mM NaCl, 0.5% Tween 20) containing 5% nonfat milk for 60 minutes, then washed once with TBST. The membrane was treated with rabbit antibody against human LC3 I/II (abcam) and stirred overnight at 4° C. The membrane was washed 3 times for 10 min with TBST, then was incubated for 1 hour with the HRP-labeled antibody (mouse anti-rabbit IgG-HRP, Santa Cruz, Inc.) against the rabbit antibody isolated from a mouse as a secondary antibody (1:3000 dilution). After washing three times with TBST and developing according to the protocol of the manufacturer of the ECL system (Amersham Biosciences), an image was detected with a luminescent image analyzer (LAS100 Plus, Fujifilm, Japan).

[6] = system: MDA-MB-231 tumor after rapamycin autophagy induction; assay: In vivo NIRF imaging of autophagy in tumor animal model; design: species or system nude mouse; details: flamma 675-labeled peptide, tail vein, 50 μM; 4 to 5 hours after peptide injection; rapamycin 1.5 mg per kg i.p. (FIG. 9)
Protocol: As an experiment for monitoring and imaging autophagy using a peptide probe, tumor cells were transplanted into immunodeficient nude mice to grow tumors, and animal models for experiments were constructed. The MDA-MB-231 cell (10^6 cells), which was verified in the results of FIGS. 7A and 7B of the present invention, was injected into the femoral region of the nude mouse, and it was confirmed that the size of the tumor was 80 mm^3 after 10 days. In order to induce autophagy, rapamycin was injected intraperitoneally into each mouse in an amount of 1.5 mg per kg of the mouse. Two hours after the injection of rapamycin, AtgPep-2 (CQQTKNYYC: SEQ ID NO: 2) of the present invention, labeled with flamma 675 (=FPR675, Bioact Co., Korea), a near-infrared fluorescent (NIRF) was administered to each mouse (N=5 To 7) via tail vein at a final 50 μM concentration/mouse, while being allowed to circulate along the blood for 2 hours to obtain optical and fluorescence imaging at 2 hours, 4 hours, and 5 hours after the administration of the peptide. As a control, CNSSSVDKC peptide (Control, SEQ ID NO: 10) labeled with flamma 675 was injected at the same concentration and method. NIRF imaging signals were scanned and acquired using an IVIS imaging system (Caliper Life Sciences, Massachusetts, USA).

CNSSSVDKC (not fully specified; cysteine pairing not given here; also: flamma 675 label) [control peptide labeled with flamma 675, reference compound]
target signal in the tumor tissue [1]: target signal was not present

CKHHLGAIC (Artificial Amino acid sequence of AtgPep-1)
targeting to autophagy cells in other cell types [2]: specifically targeted to autophagy cells regardless of cell types
binding specificity of phage clones to autophagy cells [3]: high binding specificity to autophagy cells
fluorescence signal on early autophagy cells [4]: strong fluorescence signals
site of binding on autophagy-induced cells [4]: bound to the cell membrane of the autophagy cell

CPPNTDRSC (Artificial Amino acid sequence of AtgPep-4)
binding specificity of phage clones to autophagy cells [3]: high binding specificity to autophagy cells

CCN(CC)CCCC(C)Nc1ccnc2cc(Cl)ccc12 (centres unmarked) [chloroquine]
production of LC3 II protein [5]: further increased

CNTGSPYEC (Artificial Amino acid sequence of AtgPep-3)
binding specificity of phage clones to autophagy cells [3]: high binding specificity to autophagy cells

CQQTKNYYC (Artificial Amino acid sequence of AtgPep-2)
targeting to autophagy cells in other cell types [2]: specifically targeted to autophagy cells regardless of cell types
binding specificity of phage clones to autophagy cells [3]: high binding specificity to autophagy cells
fluorescence signal on early autophagy cells [4]: strong fluorescence signals
site of binding on autophagy-induced cells [4]: bound to the cell membrane of the autophagy cell
tumor targeting in NIRF imaging versus control peptide [6]: significantly higher level
target signal in the tumor tissue [1]: significantly higher
